Results from patent US5162317A, “Pyridinium salt and pharmacological composition containing the same” (Esai Co., Ltd., priority 1988, dated 1992).

biological target: T1, H^+ --K^+ ATPase (Sus scrofa, UniProt P19156); assay: Inhibition effect on H^+ --K^+ ATPase activity; format: biochemical; conditions: H^+ --K^+ ATPase from fresh swine gastric mucosa, 10 μg protein/ml, pH 7.40, 37° C., 30 minutes incubation; compound dissolved in methanol
T1 construct: prepared from the fundus ventriculi gland of fresh swine gastric mucosa; from tissue; host or cells: swine gastric mucosa, fundus ventriculi gland (modified method of Saccomani et al. 1977)
T1 sequence (P19156 2-1034 limits assumed): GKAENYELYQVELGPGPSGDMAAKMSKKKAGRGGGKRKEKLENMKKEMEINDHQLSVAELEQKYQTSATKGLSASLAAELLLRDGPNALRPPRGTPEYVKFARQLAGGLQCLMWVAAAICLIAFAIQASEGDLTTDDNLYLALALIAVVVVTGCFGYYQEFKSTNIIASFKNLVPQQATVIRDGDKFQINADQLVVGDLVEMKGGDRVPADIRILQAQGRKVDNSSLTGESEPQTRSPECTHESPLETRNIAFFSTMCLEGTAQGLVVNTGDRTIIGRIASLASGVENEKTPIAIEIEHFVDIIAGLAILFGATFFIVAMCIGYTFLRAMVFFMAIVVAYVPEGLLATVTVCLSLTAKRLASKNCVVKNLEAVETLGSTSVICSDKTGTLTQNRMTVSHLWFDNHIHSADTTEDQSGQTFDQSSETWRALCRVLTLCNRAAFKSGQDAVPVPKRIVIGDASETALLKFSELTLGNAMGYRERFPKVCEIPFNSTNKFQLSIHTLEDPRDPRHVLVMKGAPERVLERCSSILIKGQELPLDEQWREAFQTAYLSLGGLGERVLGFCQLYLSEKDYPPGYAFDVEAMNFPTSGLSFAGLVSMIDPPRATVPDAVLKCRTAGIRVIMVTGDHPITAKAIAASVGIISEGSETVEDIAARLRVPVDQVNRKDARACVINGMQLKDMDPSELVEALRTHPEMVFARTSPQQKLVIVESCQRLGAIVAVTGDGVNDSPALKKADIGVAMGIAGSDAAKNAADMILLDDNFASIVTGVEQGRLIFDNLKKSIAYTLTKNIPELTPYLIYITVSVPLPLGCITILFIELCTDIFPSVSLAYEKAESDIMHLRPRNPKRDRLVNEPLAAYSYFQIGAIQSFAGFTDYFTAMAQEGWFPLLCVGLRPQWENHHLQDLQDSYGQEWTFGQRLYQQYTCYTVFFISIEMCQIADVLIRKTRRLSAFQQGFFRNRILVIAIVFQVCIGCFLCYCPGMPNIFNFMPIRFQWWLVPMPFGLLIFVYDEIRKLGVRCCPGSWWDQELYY
T1 sequence (P18434 whole entry partner): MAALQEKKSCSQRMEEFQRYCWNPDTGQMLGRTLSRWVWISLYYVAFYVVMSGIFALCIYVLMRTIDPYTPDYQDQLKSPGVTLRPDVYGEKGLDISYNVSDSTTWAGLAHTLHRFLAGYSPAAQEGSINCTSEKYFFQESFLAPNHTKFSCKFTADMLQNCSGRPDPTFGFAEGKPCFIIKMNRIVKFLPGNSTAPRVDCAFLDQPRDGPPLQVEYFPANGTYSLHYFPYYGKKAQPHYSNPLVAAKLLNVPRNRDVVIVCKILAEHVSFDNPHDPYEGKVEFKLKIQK
Protocol: Inhibition effect on H^+ --K^+ ATPase activity
(1) Preparation of H^+ --K+ATPase
The enzyme H^+ --K+ATPase was prepared from the fundus ventriculi gland of fresh swine gastric mucosa by a modified method of Saccomani et al. (Biochem. and Biophys. Acta., 464, 313 (1977)).
(2) Determination of H^+ --K^+ ATPase activity
(§1) Various concentrations of the compounds of the present invention were incubated together with 10 μg protein/ml of the H^+ --K^+ ATPase in a 40 mM Tris HCl buffer (pH 7.40) at 37° C. for 30 minutes. Then 15 mM KCl was added thereto. Ten minutes thereafter, an ATPase reaction between 3 mM of MgCl2 and ATP was started. Ten minutes thereafter, the liberated inorganic phosphoric acid was determined according to Yoda and Hokin's method (cf. Biochem. Biophys. Res., Com., 40, 880 (1970)).
The test compound was 3-(3-methoxy)propoxy-4-methyl-5H-pyrido[1'.2':4.5][1.2.4.]thiazino[2.3-a]- benzimidazol-13-ium tetrafluoroborate (the compound of Example 1). This compound was dissolved in methanol prior to the test.
The inhibition effect (%) was calculated by dividing the difference between the data of the test group and that of the control group, to which solvent was added exclusively, by the data of the control group.
(1) Preparation of H^+ --K^+ ATPase
The enzyme H^+ --K^+ ATPase was prepared from the fundus ventriculi gland of fresh swine gastric mucosa by a modified method of Saccomani et al. (Biochem. and Biophys. Acta., 464, 313 (1977)).
as §1, with “H+--K^+” for “H^+ --K^+”, “MgCl” for “MgCl2”
The test compound was 2-[2-(ethyldithiomethyl)4-(3-methoxy)propoxy-3-methyl-1-pyridinio)benzimidazolide (the compound of Example 1). […]

Row | IC50 [µM] | Structure (SMILES)
1 | > 10 | CCSSCc1c(C)c(OCCCOC)cc[n+]1-c1nc2ccccc2[n-]1 [Example 12, 2-[2-(Ethyldithiomethyl)-4-(3-methoxy)propoxy-3-methyl-1pyridinio]benzimidazolide]
2 | 11 | COc1ccc2[nH]c([S+]([O-])Cc3ncc(C)c(OC)c3C)nc2c1 (stereo not drawn) [Omeprazole, reference compound]
3 | 0.44 | COCCCOc1cc[n+]2c(c1C)CSn1c-2nc2ccccc21 [Example 1, 3-(3-Methoxy)propoxy-4-methyl-5H-pyrido[1'.2':4.5][1.2.4]thiaziano[2.3-a]benzimidazol-13-ium tetrafluoroborate]
